Experimental data: patent US10487054B2, “Therapeutic compounds” (REGENTS OF THE UNIVERSITY OF MINNESOTA, priority 2017, dated 2019)

Experiments:
active TOPK = target: T1, active TOPK (Homo sapiens, UniProt Q96KB5); experiment: ATP competition pull-down assay with compound 1-conjugated Sepharose 4B beads; format: binding; details: ATP 0, 10 or 100 μM; active TOPK 200 ng
T1 construct: purchased SignalChem (Richmond, BC, Canada)
T1 sequence (Q96KB5 1-322): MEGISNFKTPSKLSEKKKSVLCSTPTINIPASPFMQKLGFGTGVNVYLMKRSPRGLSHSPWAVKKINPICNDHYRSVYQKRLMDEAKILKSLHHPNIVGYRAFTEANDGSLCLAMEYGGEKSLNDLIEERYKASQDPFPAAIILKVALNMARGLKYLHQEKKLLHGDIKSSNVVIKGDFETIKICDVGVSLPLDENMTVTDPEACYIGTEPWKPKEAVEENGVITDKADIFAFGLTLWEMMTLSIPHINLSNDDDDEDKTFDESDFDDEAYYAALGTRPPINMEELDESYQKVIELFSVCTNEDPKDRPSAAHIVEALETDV
Procedure: Active TOPK (200 ng) was incubated with different concentrations of ATP (0, 10 or 100 μM) and then mixed with compound 1-conjugated Sepharose 4B beads or Sepharose 4B beads. Proteins were pulled down and analyzed by Western blot. Data are representative of 3 independent experiments that gave similar results. FIGS. 2C and 2D show compound 1 binds to either TOPK (2C) or MEK1/2 (2D) ex vivo. Lysates from HaCaT cells (500 μg) were incubated with compound 1-conjugated Sepharose 4B beads or Sepharose 4B beads alone and the pulled-down proteins were analyzed by Western blot. Data are representative of 3 independent experiments that gave similar results. FIGS. 2E and 2F show compound 1 inhibits TOPK kinase (2E) activity but not MEK1 kinase (2F) activity in vitro. Active TOPK (200 ng) was mixed with compound 1 (0, 0.5, 1, 3, or 5 μM) or HI-032 (TOPK inhibitor, 10 μM) and then incubated with a [γ-^32P] ATP mixture. Similarly, MEK1 (200 ng) was mixed with compound 1 (0, 0.5, 1, 3, 5, or 10 μM) or PD098059 (MEK1 inhibitor, 5 μM) and then incubated with a [γ-^32P] ATP mixture. For 2E and 2F, the results are visualized by autoradiography and Coomassie blue staining serves as a loading control. Data are representative of 3 independent experiments that gave similar results. […]

HaCaT cells = experiment: Western blot of SUV-induced TOPK downstream signaling; format: cell-based, human
Procedure: The cells were cultured, treated for 4 h with different concentrations of compound 1 and then exposed to SUV (60 kJ UVA/m^2 and 2.9 kJ UVB/m^2), followed by an additional 15-minute incubation. Cells were harvested and the levels of phosphorylated and total proteins were determined by Western blot analysis with specific antibodies as indicated. […] The cells were cultured and treated with different concentrations of compound 1 for 24 h. Cells were harvested and the levels of phosphorylated and total proteins were determined by Western blot analysis with specific antibodies as indicated. […] For the luciferase assay, JB6 P+ cells stably transfected with an AP-1 luciferase reporter plasmid were cultured. After starvation for 24 h, cells were treated for 1 h with compound 1 (0, 1.25, 2.5, or 5 μM). Cells were then exposed to SUV (60 kJ UVA/m^2 and 2.9 kJ UVB/m^2) and harvested 3 h later. Luciferase activity was measured and AP-1 activity is expressed relative to control cells without SUV treatment. […] Knockdown of TOPK in A431 cell line (left). Stable control or TOPK knockdown cells were co-transfected with 100 ng of the AP-1 luciferase reporter plasmid and 50 ng of internal control […] plasmid. Cells were transfected using iMFectin poly DNA transfection reagent (GenDEPOT) according to the manufacturer's instructions. After 12 h of transfection, cells were incubated with the different concentrations of compound 1 for another 24 h. Luciferase and […] activities were measured using reagents included in the reporter assay system (right). Data are shown as mean values±S.D obtained from triplicate experiments. Significant differences were evaluated using one-way ANOVA and the asterisks (*) indicate a significant effect (*, p<0.05; **, p<0.001; ***, p<0.0001). […]
HaCaT or JB6 P+ cells (1×10^6) were cultured in 10-cm dishes for 24 h and then the medium was replaced with 0.1% FBS medium for 24 h. […] Protein concentration in cell lysates was determined using a protein assay kit (Bio-Rad Laboratories, Hercules, Calif.). […]

## O=C1Nc2ccc(C34CC5CC(CC(C5)C3)C4)cc2C1=NO [compound 1, 5-(adamantan-1-yl)-3-(hydroxyimino)indolin-2-one]
Active TOPK
  binding ability with TOPK in presence of ATP: altered in the presence of ATP
HaCaT cells; HaCaT cells exposed to SUV
  phosphorylated c-Jun protein levels: significantly suppressed
HaCaT cells; HaCaT cells, 4 h treatment then SUV (60 kJ UVA/m2 and 2.9 kJ UVB/m2)
  phosphorylation of ERK1/2, p38, and JNKs: markedly suppressed
HaCaT cells; Western blot, cell lines not specified in the sentence (FIG. 3A, 3B)
  phosphorylated and total TOPK protein levels: no significant changes
